Measured values reported in paper PMC12405493, “Selective ubiquitination of drug-like small molecules by the ubiquitin ligase HUWE1” (Nature Communications, 2025).

Assays:
HUWE1^HECT [1] = molecular target: T1, HUWE1^HECT (Homo sapiens, UniProt Q7Z6Z7); assay: Single-turnover assay, Ub thioester transfer from E2 to HUWE1^HECT; format: biochemical; conditions: HECT^Δ4 variant
T1 construct: HUWE1^HECTΔ4 (residues 3993–4370); made in house
T1 sequence (Q7Z6Z7 3993-4370): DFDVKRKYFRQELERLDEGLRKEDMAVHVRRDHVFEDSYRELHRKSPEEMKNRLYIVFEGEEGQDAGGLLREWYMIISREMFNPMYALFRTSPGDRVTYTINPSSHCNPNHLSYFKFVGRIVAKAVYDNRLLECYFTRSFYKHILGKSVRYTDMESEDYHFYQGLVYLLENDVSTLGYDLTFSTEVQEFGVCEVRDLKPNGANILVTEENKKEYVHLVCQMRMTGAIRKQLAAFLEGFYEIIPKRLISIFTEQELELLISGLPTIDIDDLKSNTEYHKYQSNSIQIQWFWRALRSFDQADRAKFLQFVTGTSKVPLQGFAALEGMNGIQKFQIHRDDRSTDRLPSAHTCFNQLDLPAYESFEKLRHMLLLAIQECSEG
Method: E3-free multi-turnover ubiquitination reactions to monitor E1 and E2 activities contained 1 μM UBA1, 5 μM UBE2L3, 100 μM Ub, 2 mM ATP and 10 mM MgCl2 in 25 mM HEPES (pH 7.4), and 0.2 mM TCEP. Reactions were incubated at 30 °C for 10 min (or otherwise, as specified) and quenched with 50 mM EDTA, followed by the addition of SDS-loading dye. Single-turnover E2~Ub discharge assays were performed similarly to previous studies. In short, 1 μM UBA1, 5 μM UBE2L3, and 100 μM Ub were pre-incubated with 2 mM ATP and 10 mM MgCl2 in 25 mM HEPES (pH 7.4) at 30 °C for 30 min, diluted 4-fold, and quenched with 50 mM EDTA. Thereafter, 1.2 μM of the UBE2L3~Ub product was incubated with 5 μM HUWE1^HECT at 30 °C for 1 min.

HUWE1^HECT [2] = molecular target: T2, HUWE1^HECT (Homo sapiens, UniProt Q7Z6Z7); assay: HDX-MS of HUWE1^HECT with inhibitors; format: binding; conditions: 10-fold molar excess of inhibitor
T2 construct: the isolated HECT domain of HUWE1 (HUWE1^HECT); made in house
T2 sequence (Q7Z6Z7 4038-4374 limits assumed): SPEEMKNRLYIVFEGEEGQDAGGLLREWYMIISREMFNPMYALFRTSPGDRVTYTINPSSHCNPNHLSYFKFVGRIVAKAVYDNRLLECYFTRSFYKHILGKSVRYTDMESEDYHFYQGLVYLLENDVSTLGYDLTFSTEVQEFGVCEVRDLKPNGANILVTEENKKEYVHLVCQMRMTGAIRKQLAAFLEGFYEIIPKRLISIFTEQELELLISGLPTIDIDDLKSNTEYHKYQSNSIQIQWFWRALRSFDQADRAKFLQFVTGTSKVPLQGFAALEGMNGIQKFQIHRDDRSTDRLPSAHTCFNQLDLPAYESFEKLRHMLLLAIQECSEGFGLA
Method: Two experiments were performed: 50 μM HUWE1^HECT (1) or HUWE1^HECT-Ub conjugate (2) were incubated with 500 μM of BI8626 or BI8622 for 1 h on ice prior HDX-MS. Individual HDX reactions were generated with a 2-arm autosampler (LEAP Technologies) by mixing 6.5 μL sample with 58.5 μL of HDX buffer (20 mM HEPES pH 8.0, 150 mM NaCl, 5 mM DTT) prepared with 99.9% D2O, incubation at 25 °C for various times, before quenching by mixing 55 μL with an equal volume of 400 mM KH2PO4/H3PO4 (pH 2.2) and 2 M guanidine-HCl (precooled at 1 °C). Non-deuterated samples were generated analogously by 10-fold dilution with H2O-based buffer. […] For each protein state and time-point, three individual HDX reactions were measured.
Peptide identification and HDX analysis was performed with ProteinLynx Global SERVER v.3.0.1 (PLGS; Waters) and DynamX v.3.0 (Waters), as described previously. […] Only peptides with an intensity >10,000 counts, ≤ 30 residues, ≥ 2 products with ≥ 0.05 products/residue, ≤ 25 ppm mass error and retention time tolerance of 0.5 min were analysed. […] The maximal deuterium uptake of a given peptide was calculated by the number of residues minus one for the N-terminal residue and minus the number of prolines. […]

[3] = tested on: HECT domains of E6AP (UBE3A), HACE1, NEDD4, and UBE3C; assay: Analytical SEC of compound ubiquitination by other HECT domains; format: biochemical, human

| Structure (SMILES) | Ub transfer from the E2 to HUWE1^HECT (HUWE1^HECT [1]) | Binding to HUWE1^HECT by HDX-MS (HUWE1^HECT [2]) | Compound ubiquitination by other HECT domains [3] |
| --- | --- | --- | --- |
| Cc1c(C(=O)Nc2ccc(CN)cc2)ncnc1N1CCC(C#N)(c2ccccc2)CC1 [BI8622] | do not obstruct Ub transfer from the E2 to HUWE1^HECT | did not provide evidence of binding | certain compound-directed activities were detected for all tested HECT domains |
| NCc1cccc(CNc2ncnc3c(N4CCN(Cc5ccccc5)CC4)ncnc23)c1 [BI8626] | do not obstruct Ub transfer from the E2 to HUWE1^HECT | did not provide evidence of binding | certain compound-directed activities were detected for all tested HECT domains |
